For 3 molecules, IC50 results are on record in article PMC3813006 (Bioorganic & medicinal chemistry, 2009).

A short description of data set [1]: Cytotoxicity in cultured L6 rat myoblast cells. The data set is classed as cell-based. Particulars: rat, L6 rat myoblast cells.
A further data set deals with L6 rat myoblast cells. Description: Cytotoxicity in cultured L6 rat myoblast cells. To be noted: read-out: Cytotoxicity IC50; cultured L6 rat myoblast cells. The data set is classed as cell-based.
The subject of data set [2] is Trypanosoma brucei rhodesiense STIB900. Description: In vitro antitrypanosomal assay, T. b. r. STIB900. It counts as cell-based. Particulars: RHODESIENSE|STIB900, read-out: T. b. r. IC50.
Another data set concerns Plasmodium falciparum K1. Description: microbe, parasite or virus in culture. Particulars: K1, read-out: P. f. IC50.

On to `N=C(N)c1ccc(-c2ccc(-c3ccc(C(=N)N)cc3)cc2)cc1` [6a], for which, in data set [1], the half-maximal inhibitory concentration (IC50) amounted to 22.1 µM.
On to `N=C(N)c1ccc(-c2ccc(-c3ccc(C(=N)N)cc3)nn2)cc1` [15b], for which, in the data set on L6 rat myoblast cells, the IC50 came out at 31.3 µM.
In the case of `N=C(N)c1ccc(-c2ccc(-c3ccc(C(=N)N)cn3)o2)cc1` [3a, azafuramidine], the IC50 (in data set [2]; with Plasmodium falciparum K1) was 0.0065 µM throughout.

Broadly, the IC50 is the concentration at which inhibition is half-maximal.
